Measurements published in patent US8557864B2, “Agent having neurotrophic factor-like activity” (Nagoya Industrial Science Research Institute, priority 2007, dated 2013).

Columns and labels:
Type in all cases: in vivo
[1] = system: mice under chronic mild stress; assay: Burying the glass-marbles test, compound given at the same time as stress; conditions: 20, 100 and 500 μg/kg intraperitoneally once per day with stress; stressed 3 week- and 1 week-administration groups
Method: (§1) Mice under established chronic mild stress (hereinafter referred to as “stress”) were used for a depression and anxiety disorder-like model animal. Stress was applied as follows. 7-week-old male ddY strain mice fed in one cage for 4 mice were used and first subjected to forced swimming for 15 minutes. Then, the mice were fed in a sloped cage for 2 days, and then rested in a normal cage for 1 day. Then, the mice were fed in a dirt cage moisturized with 200 mL of water for 1 day and then rested in a normal cage for 1 day. Then, the mice were fed in a rotational cage that rotated at 180 rpm for 1 day, and then rested in a normal cage for 1 day. […] For 0 μg/kg administration examples of controls, a phosphoric acid buffer containing 0.1% DMSO (controls were expressed as “PBS” or “0 μg/kg” in the figure shown below) was administered in an amount of 0.25 mL to each of a stressed example and a non-stressed example. […]
Tips were bedded so as to have a height of 5 cm in a box with […] and 25 glass marbles (1.6 cm in diameter) were placed thereon at 5 cm-interval and behaviors of mice were observed. […] Since a mouse under stress having an anxiety symptom (condition) takes such a behavior as burying glass marbles, a level of the anxiety symptom can be evaluated from the number of buried glass marbles.

[2] = system: mice under chronic mild stress; assay: Tail suspension test, compound given at the same time as stress; conditions: 20, 100 and 500 μg/kg intraperitoneally once per day with stress; stressed 3 week- and 1 week-administration groups
Method: as §1
A site of 1 cm from the tip of the tail of a mouse was grasped by a hand, being apart from a floor from 10 cm, and an immobility time in suspension for 6 minutes was measured for 2 hours. Since the immobility time prolongs when the mouse has a depressive symptom (condition), a level of the depressive symptom (condition) can be evaluated from the length of the immobility time. […]

[3] = Measurement of weights of mice before and after stress; conditions: 3 weeks with stress
Text: A weight of a mouse before stress was subtracted from the weight of the mouse immediately after administering the compound 8 as well as stress for 3 weeks to obtain a weight gap (g).

[4] = system: mice under chronic mild stress; assay: Burying the glass-marbles test after completion of stress; conditions: 20 μg/kg and 100 μg/kg; 1 week- and 2 week-administration groups after completion of stress
Method: Tips were bedded so as to have a height of 5 cm in a box with […] and 25 glass marbles (1.6 cm in diameter) were placed thereon at 5 cm-interval and behaviors of mice were observed. The number of buried glass marbles was found by counting each glass marble that was buried in ⅔ or more from visual observation from just above after 15 minutes as one count. The test was performed for 3 hours. Since a mouse under stress having an anxiety symptom (condition) takes such a behavior as burying glass marbles, a level of the anxiety symptom can be evaluated from the number of buried glass marbles.
(§2) Example 2 is a behavior test in which the compound 8 was administered to a mouse as well as stress was applied and a suppression effect of the compound 8 on depressive and anxiety symptoms of the mouse was examined. On the other hand, the present example is a behavior test in which only stress was applied for 3 weeks without administering the compound 8 and stress was completed and a therapeutic effect of the compound 8 on depressive and anxiety symptoms of a mouse after removing stress was examined. Stress was applied to a mouse in the same manner as in Example 2. […]

[5] = system: mice under chronic mild stress; assay: Tail suspension test after completion of stress
Method: A site of 1 cm from the tip of the tail of a mouse was grasped by a hand, being apart from a floor from 10 cm, and an immobility time in suspension for 6 minutes was measured for 2 hours. Since the immobility time prolongs when the mouse has a depressive symptom (condition), a level of the depressive symptom (condition) can be evaluated from the length of the immobility time. FIGS. 6 and 7 show the results.
as §2

[6] = system: mice under chronic mild stress; assay: Elevated plus maze test after completion of stress
Method: In this test, an anxiety level can be evaluated from the time for being the open arm, and a behavior amount can be evaluated from the number of times of entering the closed arm. From the evaluations, when a mouse has an anxiety symptom (condition), the time for being in the open arm […], and thus, a level of the anxiety symptom (condition) can be evaluated from the length of the time. FIGS. 8 to 11 show the results.
Example 2 is a behavior test in which the compound 8 was administered to a mouse as well as stress was applied and a suppression effect of the compound 8 on depressive and anxiety symptoms of the mouse was examined. On the other hand, the present example is a behavior test in which only stress was applied for 3 weeks without administering the compound 8 and stress was completed and a therapeutic effect of the compound 8 on depressive and anxiety symptoms of a mouse after removing stress was examined. Stress was applied to a mouse in the same manner as in Example 2. For behavior tests of mice, the burying the glass-marbles test, the tail suspension test and the elevated plus maze test were performed respectively in the same manners as in Example 2 on groups without administering the compound 8 immediately after completion of stress for 3 weeks and groups without administering the compound 8 with no stress from the start (hereinafter referred to as “non-administration groups after completion of stress”); a group administered with the compound 8 for 1 week after completion of stress and a group administered with the compound 8 for 1 week in the same manner as the former group with no stress from the start (hereinafter referred to as “1 week-administration groups after completion of stress”); and a group administered with the compound 8 for 2 weeks after completion of stress and a group administered with the compound 8 for 2 weeks in the same manner as the former group with no stress from the start (hereinafter referred to as “2 week-administration groups after completion of stress”). […]

[7] = 500 μg/kg, 1 week-administration groups after completion of stress

CCCCCCC/C=C/C(=O)OCC [Compound 8, trans-2-decenoic acid ethyl ester]
number of buried glass marbles, stressed vs non-stressed example [1]: no significant difference | immobility time, stressed vs non-stressed example [2]: no significant difference | weight gap, stressed vs non-stressed example ([3]; 500 μg/kg administration group): no significant difference | ratio of weight decrease in stressed examples compared to control (PBS) ([3]; compound 8 administration groups): less | number of buried glass marbles, stressed vs non-stressed example [4]: no significant difference | immobility time, stressed vs non-stressed example [5, 7]: no significant difference | immobility time, stressed vs non-stressed example ([5]; all administration examples, 2 week-administration groups after completion of stress): no significant difference | time for being in open arm, stressed vs non-stressed example [6, 7]: no significant difference | number of times of entering closed arm (behavior amount) ([6]; 1 week- and 2 week-administration groups after completion of stress, vs controls (0 μg/kg) and stressed vs non-stressed): no significant difference | time for being in open arm, stressed vs non-stressed example ([6]; all administration examples, 2 week-administration group after completion of stress): no significant difference
